{
  "source": "paper PMC6982354",
  "about": "“Promising New Inhibitors of Tyrosyl-DNA Phosphodiesterase I (Tdp 1) Combining 4-Arylcoumarin and Monoterpenoid Moieties as Components of Complex Antitumor Therapy” (International Journal of Molecular Sciences, 2019)",
  "origin": "cited, not measured here",
  "key": {"[1]": {"test_system": "human cancer cells", "set-up": "method as in PMID 27658793", "conditions": "compound in non-toxic doses; cited from earlier work"}, "[2]": {"biological_target": "T1, Tdp1 (Homo sapiens, UniProt Q9NUW8)", "T1 construct": "made in house", "T1 sequence (Q9NUW8 whole entry)": "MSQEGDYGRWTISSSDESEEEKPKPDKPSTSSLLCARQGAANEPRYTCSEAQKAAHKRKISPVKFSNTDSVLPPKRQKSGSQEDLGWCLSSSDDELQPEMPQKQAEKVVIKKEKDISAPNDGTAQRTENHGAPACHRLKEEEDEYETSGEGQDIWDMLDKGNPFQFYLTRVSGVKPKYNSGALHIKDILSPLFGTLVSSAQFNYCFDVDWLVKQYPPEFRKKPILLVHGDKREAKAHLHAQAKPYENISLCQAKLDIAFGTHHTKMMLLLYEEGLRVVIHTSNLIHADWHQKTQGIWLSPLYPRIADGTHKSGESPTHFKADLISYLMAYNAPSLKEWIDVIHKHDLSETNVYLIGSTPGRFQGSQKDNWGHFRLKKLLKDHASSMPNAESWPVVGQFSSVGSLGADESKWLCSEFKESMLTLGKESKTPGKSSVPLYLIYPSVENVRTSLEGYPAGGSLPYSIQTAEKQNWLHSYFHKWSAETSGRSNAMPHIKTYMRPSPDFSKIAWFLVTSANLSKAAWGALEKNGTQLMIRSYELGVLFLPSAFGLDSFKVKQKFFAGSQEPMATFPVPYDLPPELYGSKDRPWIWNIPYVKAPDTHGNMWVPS", "set-up": "method as in PMID 27658793", "conditions": "Tdp1 inhibition, Figure 1; cited from earlier work"}},
  "data": [
    {"smiles": "CC1(C)C2CC=C(COc3ccc4c5c(c(=O)oc4c3)CCC5)C1C2", "note": "(centres unmarked) [compound 2]", "values": [
      {"measurement": "effect on the cytotoxic activity of CPT", "setting": "[1]", "value": "significantly increased"}
    ]},
    {"smiles": "COc1cccc(COc2ccc3c4c(c(=O)oc3c2)CCCC4)c1", "note": "[compound 1]", "values": [
      {"measurement": "IC50", "setting": "[2]", "value": 5, "unit": "µM"}
    ]}
  ]
}
